This note sets out measurements from ChEMBL document CHEMBL6127139, “Lysine-Targeted Covalent Inhibitors of PI3Kδ Synthesis and Screening by In Situ Interaction Upgradation” (J Med Chem, 2024).

One may read the IC50 as the concentration that inhibits the measured activity by half. One may read the GI50 as the concentration giving 50% growth inhibition. The low end stands for more potent growth inhibition, the high end for less potent growth inhibition. By half-life is commonly meant the time in which the quantity being followed falls by half.

Calls of active or inactive are those of the source. No cut-off for these calls is given here.

Data set [1] addresses Phosphatidylinositol 4,5-bisphosphate 3-kinase catalytic subunit beta isoform (Homo sapiens, UniProt P42338). As to the kind of experiment: Inhibition of recombinant PI3Kbeta (unknown origin) using PIP2:3PS as substrate preincubated for 20 mins followed by ATP addition and measured after 1 hrs by ADP-Glo reagent based assay. For orientation: ADP-Glo first removes unused ATP, then detects ADP through luciferase.

Another data set deals with MCF7. As to the kind of experiment: Growth inhibition of human MCF7 cells incubated for 72 hrs by MTT assay. The data set is classed as functional. On the technique in general: Tetrazolium dyes change colour on reduction, which living cells bring about.
For another data set, the system named is Raji. Nature of the data set: Growth inhibition of human Raji cells incubated for 72 hrs by MTT assay. The data set is classed as functional.
The nature of data set [2]: Selectivity index, ratio of IC50 for inhibition of recombinant PI3Kgamma (unknown origin) using PIP2:3PS as substrate to IC50 for inhibition of recombinant PI3Kdelta (unknown origin) using PIP2:3PS as substrate.
Data set [3] in a line: Chemical reactivity of the compound with N-Boc-Lysine assessed as half-life at 1 uM by HPLC analysis. The data set is classed as physicochemical. The conditions noted are these: incubation with N-Boc-Lysine.
For data set [4], the system named is SU-DHL-6. As to the kind of experiment: Inhibition of AKT phosphorylation in human SU-DHL-6 cells preincubated for 12 hrs followed by compound washout and measured after 24 hrs by Western blot analysis. The data set is classed as cell-based. (In western blotting, separated proteins are transferred to a membrane and probed.)
The nature of data set [5]: Growth inhibition of PI3Kdelta-overexpressing human SU-DHL-6 cells incubated for 72 hrs by MTT assay. The data set is classed as functional.
Data set [6] has as its target Phosphatidylinositol 4,5-bisphosphate 3-kinase catalytic subunit alpha isoform (Homo sapiens, UniProt P42336). As to the kind of experiment: Inhibition of recombinant PI3Kalpha (unknown origin) using PIP2:3PS as substrate preincubated for 20 mins followed by ATP addition and measured after 1 hrs by ADP-Glo reagent based assay.
A short description of data set [7]: Growth inhibition of PI3Kdelta-overexpressing human Pfeiffer cells incubated for 72 hrs by MTT assay. The data set is classed as functional.
In data set [8] the test system is SU-DHL-6. As to the kind of experiment: Inhibition of AKT phosphorylation in human SU-DHL-6 cells preincubated for 12 hrs followed by compound washout and measured upto 72 hrs by Western blot analysis. The data set is classed as cell-based.
Data set [9] has as its target Phosphatidylinositol 4,5-bisphosphate 3-kinase catalytic subunit gamma isoform (Homo sapiens, UniProt P48736). Nature of the data set: Inhibition of recombinant PI3Kgamma (unknown origin) using PIP2:3PS as substrate preincubated for 20 mins followed by ATP addition and measured after 1 hrs by ADP-Glo reagent based assay.
For the next data set, the system named is HCT-116. Nature of the data set: Growth inhibition of human HCT-116 cells incubated for 72 hrs by MTT assay. The format is functional.
Data set [10] relates to SU-DHL-6. Nature of the data set: Antiproliferative activity against human SU-DHL-6 cells assessed as inhibition of cell viability preincubated for 12 hrs followed by compound washout and measured after 60 hrs by MTT assay. The data set is classed as functional, cell-based.
Data set [11] in a line: Selectivity index, ratio of IC50 for inhibition of recombinant PI3Kalpha (unknown origin) using PIP2:3PS as substrate to IC50 for inhibition of recombinant PI3Kdelta (unknown origin) using PIP2:3PS as substrate.
For data set [12], the target named is T1, Phosphatidylinositol 4,5-bisphosphate 3-kinase catalytic subunit delta isoform (Homo sapiens, UniProt O00329).
T1 sequence (O00329 whole entry): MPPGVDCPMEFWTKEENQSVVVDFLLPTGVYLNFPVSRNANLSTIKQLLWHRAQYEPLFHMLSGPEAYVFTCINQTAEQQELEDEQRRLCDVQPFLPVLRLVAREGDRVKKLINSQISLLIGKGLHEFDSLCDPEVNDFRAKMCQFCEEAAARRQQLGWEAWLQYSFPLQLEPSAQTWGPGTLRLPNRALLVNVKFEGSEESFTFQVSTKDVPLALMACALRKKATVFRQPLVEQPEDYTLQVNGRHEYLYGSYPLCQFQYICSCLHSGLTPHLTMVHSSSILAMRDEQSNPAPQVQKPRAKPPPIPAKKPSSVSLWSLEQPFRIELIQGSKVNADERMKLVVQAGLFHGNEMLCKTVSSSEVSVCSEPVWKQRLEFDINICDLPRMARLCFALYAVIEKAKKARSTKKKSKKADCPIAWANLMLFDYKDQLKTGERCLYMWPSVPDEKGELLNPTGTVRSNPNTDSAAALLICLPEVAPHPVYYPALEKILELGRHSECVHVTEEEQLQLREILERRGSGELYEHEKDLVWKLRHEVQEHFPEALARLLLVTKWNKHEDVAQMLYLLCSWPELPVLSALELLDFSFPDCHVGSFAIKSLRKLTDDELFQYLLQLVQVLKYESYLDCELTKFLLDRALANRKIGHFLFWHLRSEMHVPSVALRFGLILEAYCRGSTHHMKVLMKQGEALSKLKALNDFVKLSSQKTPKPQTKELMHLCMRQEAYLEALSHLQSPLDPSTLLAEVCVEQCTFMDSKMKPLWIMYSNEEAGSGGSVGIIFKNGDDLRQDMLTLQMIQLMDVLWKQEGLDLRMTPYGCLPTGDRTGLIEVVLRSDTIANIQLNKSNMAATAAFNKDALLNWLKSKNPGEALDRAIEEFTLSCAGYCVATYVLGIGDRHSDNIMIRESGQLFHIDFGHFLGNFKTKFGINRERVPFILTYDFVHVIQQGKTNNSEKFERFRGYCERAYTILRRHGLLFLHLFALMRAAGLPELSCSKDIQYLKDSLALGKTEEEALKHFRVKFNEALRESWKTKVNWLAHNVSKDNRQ
Nature of the data set: Inhibition of recombinant PI3Kdelta (unknown origin) using PIP2:3PS as substrate preincubated for 20 mins followed by ATP addition and measured after 1 hrs by ADP-Glo reagent based assay.

Data set [13] deals with T2, Phosphatidylinositol 4,5-bisphosphate 3-kinase catalytic subunit delta isoform (Homo sapiens) (UniProt O00329).
T2 sequence (whole entry): T1 sequence (O00329 whole entry)
Nature of the data set: Covalent inhibition of PI3Kdelta (unknown origin) using PIP2:3PS as substrate assessed as second order rate constant (Kinact/Ki ratio) incubated upto 180 mins in presence of ATP by ADP-Glo reagent based assay.

A short description of data set [14]: Selectivity index, ratio of IC50 for inhibition of recombinant PI3Kbeta (unknown origin) using PIP2:3PS as substrate to IC50 for inhibition of recombinant PI3Kdelta (unknown origin) using PIP2:3PS as substrate.
Data set [15] can be described thus: Selectivity ratio of GI50 for human HCT-116 cells to GI50 for PI3Kdelta overexpressing human SU-DHL-6. The data set is classed as functional.
For data set [16], the target named is T2, Phosphatidylinositol 4,5-bisphosphate 3-kinase catalytic subunit delta isoform (Homo sapiens). Nature of the data set: Potency index, ratio of idelalisib IC50 to test compound IC50 for inhibition of recombinant PI3Kdelta (unknown origin) using PIP2:3PS as substrate preincubated for 20 mins followed by ATP addition and measured after 1 hrs by ADP-Glo reagent based assay. The conditions noted are these: time 80.0 min.

Data set [17] has as its system SU-DHL-6. Nature of the data set: Inhibition of AKT phosphorylation in human SU-DHL-6 cells incubated for 24 hrs by Western blot analysis. Particulars: dose 10-1000 nM. The format is cell-based.
Data set [18] can be described thus: Stability of compound in PBS at pH 7.4 incubated for 24 hrs at 37 degreeC by HPLC analysis. Particulars: buffer, pH 7.4, 24 h. The data set is classed as physicochemical.
For data set [19], the system named is SU-DHL-6. As to the kind of experiment: Potency index, ratio of idelalisib GI50 to test compound GI50 for growth inhibition of PI3Kdelta-overexpressing human SU-DHL-6 cells incubated for 72 hrs by MTT assay. The data set is classed as functional.
Data set [20] is described as follows: Stability of compound in water/acetonitrile solution incubated for 24 hrs by HPLC analysis. The data set is classed as physicochemical. The conditions noted are these: buffer.

Sequence of Phosphatidylinositol 4,5-bisphosphate 3-kinase catalytic subunit beta isoform (P42338 whole entry, canonical isoform): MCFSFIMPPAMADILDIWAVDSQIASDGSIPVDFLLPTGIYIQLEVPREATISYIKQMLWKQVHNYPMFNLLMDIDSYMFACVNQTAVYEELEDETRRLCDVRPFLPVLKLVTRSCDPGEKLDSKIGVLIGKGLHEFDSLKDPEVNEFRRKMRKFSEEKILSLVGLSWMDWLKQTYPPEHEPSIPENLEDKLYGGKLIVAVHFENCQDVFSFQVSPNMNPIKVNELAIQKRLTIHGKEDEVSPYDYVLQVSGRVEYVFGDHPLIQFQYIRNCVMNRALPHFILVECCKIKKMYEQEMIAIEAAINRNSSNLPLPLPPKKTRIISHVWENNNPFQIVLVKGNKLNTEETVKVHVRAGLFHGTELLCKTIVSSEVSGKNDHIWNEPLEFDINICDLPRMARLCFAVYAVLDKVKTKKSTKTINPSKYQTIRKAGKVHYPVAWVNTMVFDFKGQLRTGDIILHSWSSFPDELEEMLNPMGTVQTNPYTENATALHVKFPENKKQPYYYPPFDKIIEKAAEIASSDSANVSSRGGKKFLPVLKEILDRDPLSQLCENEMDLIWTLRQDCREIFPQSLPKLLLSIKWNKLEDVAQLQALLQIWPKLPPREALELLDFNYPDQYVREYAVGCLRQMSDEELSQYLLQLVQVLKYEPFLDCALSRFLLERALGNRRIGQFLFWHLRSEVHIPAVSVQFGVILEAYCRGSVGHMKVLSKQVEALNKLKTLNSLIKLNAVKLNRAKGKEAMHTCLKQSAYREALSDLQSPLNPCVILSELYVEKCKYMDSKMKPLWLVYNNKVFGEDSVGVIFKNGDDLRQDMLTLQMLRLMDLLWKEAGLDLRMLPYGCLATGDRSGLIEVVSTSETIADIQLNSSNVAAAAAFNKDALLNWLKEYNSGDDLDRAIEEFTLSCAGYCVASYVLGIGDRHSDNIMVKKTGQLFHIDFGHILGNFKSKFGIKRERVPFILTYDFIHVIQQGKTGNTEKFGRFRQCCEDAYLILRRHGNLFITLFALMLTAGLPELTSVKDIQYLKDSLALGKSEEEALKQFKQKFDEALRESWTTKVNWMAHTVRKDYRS
Sequence of Phosphatidylinositol 4,5-bisphosphate 3-kinase catalytic subunit alpha isoform (P42336 whole entry, canonical isoform): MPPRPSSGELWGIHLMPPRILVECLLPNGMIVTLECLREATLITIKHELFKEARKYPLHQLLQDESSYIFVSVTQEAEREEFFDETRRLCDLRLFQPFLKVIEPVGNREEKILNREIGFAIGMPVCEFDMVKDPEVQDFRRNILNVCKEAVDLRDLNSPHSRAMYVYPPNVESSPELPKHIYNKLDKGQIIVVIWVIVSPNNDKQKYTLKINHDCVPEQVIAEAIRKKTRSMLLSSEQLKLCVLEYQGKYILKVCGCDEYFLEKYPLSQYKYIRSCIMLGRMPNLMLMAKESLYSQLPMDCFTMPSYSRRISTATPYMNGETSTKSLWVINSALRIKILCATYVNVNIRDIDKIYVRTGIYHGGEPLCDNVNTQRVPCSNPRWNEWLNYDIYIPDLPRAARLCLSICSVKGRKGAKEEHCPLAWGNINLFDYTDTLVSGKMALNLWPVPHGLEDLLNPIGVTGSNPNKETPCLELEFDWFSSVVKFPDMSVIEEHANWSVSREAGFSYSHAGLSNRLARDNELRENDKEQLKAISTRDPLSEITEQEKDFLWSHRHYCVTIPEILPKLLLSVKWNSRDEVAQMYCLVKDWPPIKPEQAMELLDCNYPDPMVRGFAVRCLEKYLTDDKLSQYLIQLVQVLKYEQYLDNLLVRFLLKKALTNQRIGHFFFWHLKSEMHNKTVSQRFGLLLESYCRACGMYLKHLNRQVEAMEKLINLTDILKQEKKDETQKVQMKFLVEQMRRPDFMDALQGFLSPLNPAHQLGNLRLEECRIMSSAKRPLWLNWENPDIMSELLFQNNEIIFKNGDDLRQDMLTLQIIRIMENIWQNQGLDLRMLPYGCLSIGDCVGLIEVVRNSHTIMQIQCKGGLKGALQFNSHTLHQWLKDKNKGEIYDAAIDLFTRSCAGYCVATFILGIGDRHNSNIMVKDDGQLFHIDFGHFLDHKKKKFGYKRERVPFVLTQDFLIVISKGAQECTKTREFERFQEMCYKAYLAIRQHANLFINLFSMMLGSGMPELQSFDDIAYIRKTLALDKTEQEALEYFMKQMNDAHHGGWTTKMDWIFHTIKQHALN
Sequence of Phosphatidylinositol 4,5-bisphosphate 3-kinase catalytic subunit gamma isoform (P48736 whole entry, canonical isoform): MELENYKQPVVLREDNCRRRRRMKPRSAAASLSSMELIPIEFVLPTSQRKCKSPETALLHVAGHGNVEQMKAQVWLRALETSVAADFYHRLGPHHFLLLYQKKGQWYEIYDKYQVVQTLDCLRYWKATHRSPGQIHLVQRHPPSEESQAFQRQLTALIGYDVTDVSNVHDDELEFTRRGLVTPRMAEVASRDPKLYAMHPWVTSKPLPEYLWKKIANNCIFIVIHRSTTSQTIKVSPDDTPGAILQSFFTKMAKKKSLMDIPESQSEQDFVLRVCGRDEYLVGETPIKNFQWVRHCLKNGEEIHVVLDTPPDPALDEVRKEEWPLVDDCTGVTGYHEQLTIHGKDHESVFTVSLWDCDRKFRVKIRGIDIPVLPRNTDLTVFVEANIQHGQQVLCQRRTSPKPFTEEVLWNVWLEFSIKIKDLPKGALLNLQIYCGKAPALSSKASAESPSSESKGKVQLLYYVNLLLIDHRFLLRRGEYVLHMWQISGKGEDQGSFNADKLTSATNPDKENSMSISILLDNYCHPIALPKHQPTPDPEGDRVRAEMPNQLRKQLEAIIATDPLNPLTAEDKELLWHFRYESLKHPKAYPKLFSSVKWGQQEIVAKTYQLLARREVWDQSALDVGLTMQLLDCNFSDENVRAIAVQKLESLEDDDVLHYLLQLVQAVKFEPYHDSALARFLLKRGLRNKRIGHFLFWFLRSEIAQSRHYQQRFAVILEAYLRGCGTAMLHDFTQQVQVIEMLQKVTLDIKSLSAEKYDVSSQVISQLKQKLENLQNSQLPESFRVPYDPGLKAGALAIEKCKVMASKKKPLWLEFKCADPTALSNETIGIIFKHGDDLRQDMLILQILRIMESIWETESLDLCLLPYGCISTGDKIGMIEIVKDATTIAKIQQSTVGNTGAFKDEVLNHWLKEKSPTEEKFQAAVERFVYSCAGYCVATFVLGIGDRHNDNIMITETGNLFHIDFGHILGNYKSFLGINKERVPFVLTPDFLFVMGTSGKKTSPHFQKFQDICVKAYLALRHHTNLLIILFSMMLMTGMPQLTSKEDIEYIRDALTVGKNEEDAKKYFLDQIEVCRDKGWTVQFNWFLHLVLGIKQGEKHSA

Take `COc1ncc(-c2ccc3ncnc(N[C@H]4CCN(C(=O)C5CCOCC5)C4)c3n2)cc1C(=O)Oc1ccc(F)cc1`: the 50% inhibitory concentration (IC50) in [1] amounted to 0.241 µM; in [6], 0.0141 µM; in data set [9] it was 0.0637 µM; in data set [12] it was 0.00445 µM. In addition, the concentration for 50% growth inhibition (GI50) in the data set on MCF7 turned out to be 6.33 µM; in the data set on Raji, 6.61 µM; in data set [5] it was 0.004 µM; in data set [7] it was 0.097 µM; with HCT-116, 2.14 µM. The values for the Ratio IC50 in [2] and in data set [11] were 14 and 3, respectively. The half-life at 1 µM in data set [3] worked out at 0.917 h. In addition, the inhibition result with SU-DHL-6 [4] and with SU-DHL-6 [8] was “Active” throughout. For the same compound, the result with SU-DHL-6 [10] was Active.
`COc1ncc(-c2cc(-c3ncc(CN4CCN(C(C)C)CC4)o3)c3cn[nH]c3c2)cc1C(=O)Oc1ccc(F)cc1`: the Ratio in data set [13] was 3.75 10^4/M/s.
For `COc1ncc(-c2ccc3ncnc(N[C@H]4CCN(C(=O)C5CCOCC5)C4)c3c2)cc1C(=O)Oc1ccc(F)cc1`, the half-maximal inhibitory concentration (IC50) in data set [1] was found to be 0.03 µM; in [6], 0.0256 µM; in [9], 0.208 µM; in data set [12] it was 0.00224 µM. For the same compound, the 50% growth inhibitory concentration (GI50) in the data set with MCF7 is over 10 µM; with Raji it was 7.59 µM; in [5] it was 0.003 µM; in data set [7] it was 0.13 µM; in the data set with HCT-116 it was 1.52 µM. The results for the Ratio IC50 in data set [2], in data set [11] and in [14] were 92, 11 and 13, respectively. In [3], the half-life at 1 µM was found to be 1.12 h. The inhibition entry in the data set on SU-DHL-6 [4] and with SU-DHL-6 [8] was “Active” in each case. In the data set on SU-DHL-6 [10], the result was Active.
On to `COc1ncc(-c2ccc3ncnc(N[C@H]4CCN(C(=O)C5CCOCC5)C4)c3c2)cc1C(=O)Oc1ccccc1`, for which the RatioGI50 is recorded as 2500 in data set [15] and about 10 with SU-DHL-6 [19]. For the same compound, the IC50 was 0.155 µM in [1], 0.066 µM in data set [6], 0.656 µM in data set [9] and 0.00053 µM in data set [12]. Moreover, the GI50 was over 10 µM in the data set with MCF7; 8.2 µM in the data set on Raji; 0.003 µM in data set [5]; 0.195 µM in data set [7]; 1.9 µM with HCT-116. The Ratio IC50 in data set [2] was over 1000; in [16], 10; in data set [11], 124; in [14], 292. Moreover, the half-life at 1 µM in data set [3] was found to be 2.4 h. The inhibition result in the data set on SU-DHL-6 [17] is “Dose-Dependent Effect”. Further, the inhibition result in the data set with SU-DHL-6 [4] and in the data set with SU-DHL-6 [8] was “Active” in each case. Further, the Stability result in data set [18] and in data set [20] was “Stable” throughout. Besides, in the data set with SU-DHL-6 [10], the outcome was Active.
For `COC(=O)c1cc(-c2ccc3ncnc(N[C@H]4CCN(C(=O)C5CCOCC5)C4)c3c2)cnc1OC`, the half-life at 1 µM in [3] was over 24 h. The results for the GI50 in data set [5] and in data set [7] were 0.05 µM and 1.24 µM, respectively. For the same compound, the IC50 was over 1 µM in data set [6] and 0.00159 µM in data set [12].
Taken in the same sequence, the figures for `COc1ncc(-c2ccc3ncnc(N[C@H]4CCN(C(=O)C5CCOCC5)C4)c3c2)cc1C(=O)Oc1ccc(Cl)cc1Cl` were 0.02 h, 0.142 µM, 0.346 µM, 0.347 µM and 0.0015 µM.
`COc1ncc(-c2ccc3ncnc(N[C@H]4CCN(C(=O)C5CCOCC5)C4)c3c2)cc1C#N`: the GI50 was over 10 µM in the data set with Raji and 4.55 µM in data set [5]. Moreover, the results for the Ratio IC50 in data set [2], in data set [11] and in data set [14] were 64, 9 and 97, respectively.
In the case of `COc1ccc(OC(=O)c2cc(-c3ccc4ncnc(N[C@H]5CCN(C(=O)C6CCOCC6)C5)c4c3)cnc2OC)cc1`, in data set [3], the half-life at 1 µM worked out at 6.45 h. Besides, the GI50 in data set [5] is 0.006 µM; in data set [7] it was 0.225 µM. For the same compound, the half-maximal inhibitory concentration (IC50) in [6] came out at 0.0565 µM; in [12], 0.00202 µM.
Taken in the same sequence, the figures for `COc1ncc(-c2ccc3ncnc(N[C@H]4CCN(C(=O)C5CCOCC5)C4)c3n2)cc1C(=O)Oc1ccc(C)cc1` were 5.43 h, 0.008 µM, 0.139 µM, 0.0135 µM and 0.00611 µM.
